Assay results as given in ChEMBL document CHEMBL3045770, “Design and synthesis of some thieno[2,3-c]pyridazine derivatives of expected anticancer activity” (2013).

Tests used:
Format in all cases: functional
OVCAR-8 = experiment: Cytotoxicity against Homo sapiens (human) OVCAR8 cells after 48 hr by SRB assay; conditions: OVCAR-8, 48 h
OVCAR-5 = experiment: Cytotoxicity against Homo sapiens (human) OVCAR5 cells after 48 hr by SRB assay; conditions: OVCAR-5, 48 h
OVCAR-3 = experiment: Cytotoxicity against Homo sapiens (human) OVCAR3 cells after 48 hr by SRB assay; conditions: OVCAR-3, 48 h
UACC-62 = experiment: Cytotoxicity against Homo sapiens (human) UACC62 cells after 48 hr by SRB assay; conditions: UACC-62, 48 h
UACC-257 = experiment: Cytotoxicity against Homo sapiens (human) UACC257 cells after 48 hr by SRB assay; conditions: UACC-257, 48 h
SK-MEL-5 = experiment: Cytotoxicity against Homo sapiens (human) SK-MEL-5 cells after 48 hr by SRB assay; conditions: SK-MEL-5, 48 h
SK-MEL-28 = experiment: Cytotoxicity against Homo sapiens (human) SK-MEL-28 cells after 48 hr by SRB assay; conditions: SK-MEL-28, 48 h
SK-MEL-2 = experiment: Cytotoxicity against Homo sapiens (human) SK-MEL-2 cells after 48 hr by SRB assay; conditions: SK-MEL-2, 48 h
M14 = experiment: Cytotoxicity against Homo sapiens (human) M14 cells after 48 hr by SRB assay; conditions: M14, 48 h
SNB-75 = experiment: Cytotoxicity against Homo sapiens (human) SNB75 cells after 48 hr by SRB assay; conditions: SNB-75, 48 h
SNB-19 = experiment: Cytotoxicity against Homo sapiens (human) SNB19 cells after 48 hr by SRB assay; conditions: SNB-19, 48 h
SF-295 = experiment: Cytotoxicity against Homo sapiens (human) SF295 cells after 48 hr by SRB assay; conditions: SF-295, 48 h
SF-268 = experiment: Cytotoxicity against Homo sapiens (human) SF268 cells after 48 hr by SRB assay; conditions: SF-268, 48 h
KM12 = experiment: Cytotoxicity against Homo sapiens (human) KM12 cells after 48 hr by SRB assay; conditions: KM12, 48 h
HT-29 = experiment: Cytotoxicity against Homo sapiens (human) HT-29 cells after 48 hr by SRB assay; conditions: HT-29, 48 h
COLO 205 = experiment: Cytotoxicity against Homo sapiens (human) COLO205 cells after 48 hr by SRB assay; conditions: COLO 205, 48 h
NCI-H522 = experiment: Cytotoxicity against Homo sapiens (human) NCI-H522 cells after 48 hr by SRB assay; conditions: NCI-H522, 48 h
MDA-MB-468 = experiment: Cytotoxicity against Homo sapiens (human) MDA-MB-468 cells after 48 hr by SRB assay; conditions: MDA-MB-468, 48 h
BT-549 = experiment: Cytotoxicity against Homo sapiens (human) BT549 cells after 48 hr by SRB assay; conditions: BT-549, 48 h
Hs-578T = experiment: Cytotoxicity against Homo sapiens (human) Hs 578T cells after 48 hr by SRB assay
DU-145 = experiment: Cytotoxicity against Homo sapiens (human) DU145 cells after 48 hr by SRB assay; conditions: DU-145, 48 h
PC-3 = experiment: Cytotoxicity against Homo sapiens (human) PC3 cells after 48 hr by SRB assay; conditions: PC-3, 48 h
UO-31 = experiment: Cytotoxicity against Homo sapiens (human) UO31 cells after 48 hr by SRB assay; conditions: UO-31, 48 h
TK-10 = experiment: Cytotoxicity against Homo sapiens (human) TK10 cells after 48 hr by SRB assay; conditions: TK-10, 48 h
RXF 393 = experiment: Cytotoxicity against Homo sapiens (human) RXF393 cells after 48 hr by SRB assay; conditions: RXF 393, 48 h
CAKI-1 = experiment: Cytotoxicity against Homo sapiens (human) Caki1 cells after 48 hr by SRB assay; conditions: CAKI-1, 48 h
ACHN = experiment: Cytotoxicity against Homo sapiens (human) ACHN cells after 48 hr by SRB assay
[1] = Cytotoxicity against Homo sapiens (human) NCI-ADR-RES cells after 48 hr by SRB assay
NCI-H460 = experiment: Cytotoxicity against Homo sapiens (human) NCI-H460 cells after 48 hr by SRB assay; conditions: NCI-H460, 48 h
NCI-H226 = experiment: Cytotoxicity against Homo sapiens (human) NCI-H226 cells after 48 hr by SRB assay; conditions: NCI-H226, 48 h
HOP-62 = experiment: Cytotoxicity against Homo sapiens (human) HOP62 cells after 48 hr by SRB assay; conditions: HOP-62, 48 h
HOP-92 = experiment: Cytotoxicity against Homo sapiens (human) HOP92 cells after 48 hr by SRB assay; conditions: HOP-92, 48 h
EKVX = experiment: Cytotoxicity against Homo sapiens (human) EKVX cells after 48 hr by SRB assay
SR = experiment: Cytotoxicity against Homo sapiens (human) SR cells after 48 hr by SRB assay
[2] = read-out: LC50 (the source's name)

Oc1c(-c2nnc(-c3ccc(Cl)cc3)o2)sc2nnc(-c3ccccc3)c(-c3ccccc3)c12
GI50 (OVCAR-8): 4.38 µM
TGI (OVCAR-8): 18.3 µM
CC50 (OVCAR-8; [2]): 0.0183 µM
GI50 (OVCAR-5): 2.18 µM
TGI (OVCAR-5): 18.3 µM
CC50 (OVCAR-5; [2]): 0.0183 µM
GI50 (OVCAR-3): 3.77 µM
TGI (OVCAR-3): 6.1 µM
GI50 (UACC-62): 3.77 µM
TGI (UACC-62): 6.61 µM
GI50 (UACC-257): 6.16 µM
TGI (UACC-257): 15 µM
CC50 (UACC-257; [2]): 0.0183 µM
GI50 (SK-MEL-5): 5.41 µM
TGI (SK-MEL-5): 9.1 µM
CC50 (SK-MEL-5; [2]): 0.0136 µM
GI50 (SK-MEL-28): 1.14 µM
TGI (SK-MEL-28): 18.3 µM
CC50 (SK-MEL-28; [2]): 0.0183 µM
GI50 (SK-MEL-2): 4.13 µM
TGI (SK-MEL-2): 8.23 µM
GI50 (M14): 4.99 µM
TGI (M14): 12.2 µM
GI50 (SNB-75): 5.74 µM
TGI (SNB-75): 18.3 µM
GI50 (SNB-19): 4.7 µM
TGI (SNB-19): 18.3 µM
GI50 (SF-295): 3.28 µM
TGI (SF-295): 8.15 µM
GI50 (SF-268): 5.52 µM
TGI (SF-268): 18.3 µM
GI50 (KM12): 4.7 µM
TGI (KM12): 15 µM
CC50 (KM12; [2]): 0.0183 µM
GI50 (HT-29): 4.56 µM
TGI (HT-29): 9.1 µM
CC50 (HT-29; [2]): 0.0183 µM
GI50 (COLO 205): 4.7 µM
TGI (COLO 205): 18.3 µM
CC50 (COLO 205; [2]): 0.0183 µM
GI50 (NCI-H522): 4.34 µM
TGI (NCI-H522): 9.76 µM
GI50 (MDA-MB-468): 5.04 µM
TGI (MDA-MB-468): 10.5 µM
GI50 (BT-549): 1.01 µM
TGI (BT-549): 18.3 µM
GI50 (Hs-578T): 4.43 µM
TGI (Hs-578T): 18.3 µM
GI50 (DU-145): 6.22 µM
TGI (DU-145): 18.3 µM
GI50 (PC-3): 4.09 µM
TGI (PC-3): 18.3 µM
CC50 (PC-3; [2]): 0.0183 µM
GI50 (UO-31): 3.62 µM
TGI (UO-31): 6.22 µM
GI50 (TK-10): 5.14 µM
TGI (TK-10): 16.9 µM
CC50 (TK-10; [2]): 0.0183 µM
GI50 (RXF 393): 3.66 µM
TGI (RXF 393): 18.3 µM
GI50 (CAKI-1): 1.84 µM
TGI (CAKI-1): 9.95 µM
GI50 (ACHN): 4.25 µM
TGI (ACHN): 17.4 µM
CC50 (ACHN; [2]): 0.0183 µM
GI50 [1]: 2.58 µM
TGI [1]: 18.3 µM
GI50 (NCI-H460): 3.15 µM
TGI (NCI-H460): 8.07 µM
CC50 (NCI-H460; [2]): 0.0183 µM
GI50 (NCI-H226): 3.06 µM
TGI (NCI-H226): 18.3 µM
CC50 (NCI-H226; [2]): 0.0183 µM
GI50 (HOP-62): 4.99 µM
TGI (HOP-62): 18.3 µM
GI50 (HOP-92): 3.21 µM
TGI (HOP-92): 6.74 µM
CC50 (HOP-92; [2]): 0.0183 µM
GI50 (EKVX): 4.05 µM
TGI (EKVX): 11.2 µM
CC50 (EKVX; [2]): 0.0183 µM
GI50 (SR): 4.52 µM
TGI (SR): 18.3 µM
